Consider 28 molecules from patent US12568972B2, “Pyridazinol compounds and derivatives, preparation methods, herbicidal compositions and applications thereof” (Qingdao Kingagroot Chemical Compound Co., Ltd., priority 2018, dated 2026).

Common to all, as to type: in vivo
One test relates to Setaria viridis. The test is described as follows: Post-emergence test, weed control effect. The settings on record: 504 h, after 3 weeks, fresh weight inhibition, read-out: activity level of harmful plant destruction (growth inhibition rate), Setaria viridis. The method in brief:
(§1)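 Weeds sown in soil-filled pots and sprayed at 2-3 leaf stage (2-3 weeks after sowing) with compound in acetone/Tween-80/water plus 80% vegetable oil methyl ester synergist at 1500 g/ha. After 3 weeks in the greenhouse, fresh-weight growth inhibition scored on a 0-10 scale (10 = completely dead).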

The subject of another test is Amaranthus retroflexus. The test is described as follows: Post-emergence test, weed control effect. The settings on record: after 3 weeks. The method in brief: as §1
Another test concerns Veronica polita. The test is described as follows: Post-emergence test, weed control effect. The settings on record: after 3 weeks. The gist of the method: as §1
The test system of the next test is Galium aparine. The test is described as follows: Post-emergence test, weed control effect. The settings on record: 504 h, after 3 weeks, fresh weight inhibition, read-out: activity level of harmful plant destruction (growth inhibition rate), Galium aparine. The method in brief:
as §1

The next test relates to Rorippa indica. The test is described as follows: Post-emergence test, weed control effect. The settings on record: after 3 weeks. The method in brief:
as §1

Another test has as its system Chenopodiaceae. The test is described as follows: Post-emergence test, weed control effect. The settings on record: after 3 weeks. The method in brief:
as §1

The subject of another test is Echinochloa crus-galli. The test is described as follows: Post-emergence test, weed control effect. The settings on record: 504 h, after 3 weeks, fresh weight inhibition, read-out: activity level of harmful plant destruction (growth inhibition rate), Echinochloa crus-galli. The method in brief:
as §1

A further test relates to weeds. The test is described as follows: Control effect and synergistic effect of the mixture of (i) and (ii), postemergence (Gowing method). The source says: Wherein, in the formula, X represented the fresh weight inhibition rate of the active ingredient A in a dosage of P, and Y represented the fresh weight inhibition rate of the active ingredient B in a dosage of Q. The statistic results are shown in Table 6.

The mark [1] stands for this setting: Veronica polita, 504 h, fresh weight inhibition, read-out: activity level of harmful plant destruction (growth inhibition rate), Veronica polita.
The mark [2] stands for this setting: Rorippa indica, 504 h, fresh weight inhibition, read-out: activity level of harmful plant destruction (growth inhibition rate), Rorippa indica.
The mark [3] stands for this setting: 504 h, fresh weight inhibition, read-out: activity level of harmful plant destruction (growth inhibition rate), Chenopodiaceae.
[4] abbreviates: Abutilon theophrasti, 30 g a.i./ha, postemergence, 20 days after treatment.
The mark [5] stands for this setting: post-emergence, 480 h, Abutilon theophrasti, 30 g a.i./ha, postemergence, 20 days after treatment, read-out: Inhibitory effect of component (ii) when applied alone at same dose.
The mark [6] stands for this setting: post-emergence, 480 h, Abutilon theophrasti, 50 g a.i./ha, postemergence, 20 days after treatment, read-out: Inhibitory effect of component (ii) when applied alone at same dose.

Where two headings read alike, the source gives them in different places.

One may read the inhibition as the drop in the measured response relative to a control, in per cent. `Oc1cc(C(F)(F)F)nnc1C1=CCCCC1` [Compound 1524]: the inhibition at 300 g/ha with Setaria viridis was 100%; in the test with Veronica polita (setting [1]) it was 90 to 100%; with Galium aparine, 90 to 100%; with Rorippa indica (setting [2]), 100%; in the test on Chenopodiaceae (setting [3]), 100%. Moreover, the “weed control effect (activity level), Amaranthus retroflexus” value with Amaranthus retroflexus (Dose 3000 g/ha) is reported as 10. Moreover, in the test on Veronica polita (Dose 3000 g/ha), the “weed control effect (activity level), Veronica polita” value amounted to 10. Further, the “weed control effect (activity level), Rorippa indica” value in the test with Rorippa indica (Dose 3000 g/ha) worked out at 10. In the test on Chenopodiaceae (Dose 3000 g/ha), the “weed control effect (activity level), Chenopodiaceae” value is recorded as 10.
For `Cn1nc(-c2cc(O)c(Cl)cc2Cl)c(=O)cc1C(F)(F)F` [C, reference compound], the inhibition at 300 g/ha in the test with Setaria viridis is 0%; with Veronica polita (setting [1]) it was 20 to 30%; in the test with Galium aparine, 20 to 30%; with Rorippa indica (setting [2]), 30 to 40%; in the test with Chenopodiaceae (setting [3]) it was 30 to 40%; in the test with Echinochloa crus-galli, 0%.
Turning to `N#Cc1ccc(-c2nnc(C(F)(F)F)cc2OC(=O)c2ccc(Cl)cc2)cc1` [Compound 1-82], the inhibition at 150 g/ha was 100% in the test on Setaria viridis (Dose 150 g/ha); 80 to 90% in the test with Veronica polita (Veronica polita, 504 h, Dose 150 g/ha, fresh weight inhibition, read-out: activity level of harmful plant destruction (growth inhibition rate), Veronica polita); 70 to 80% in the test with Galium aparine (Dose 150 g/ha); 100% with Rorippa indica (Rorippa indica, 504 h, Dose 150 g/ha, fresh weight inhibition, read-out: activity level of harmful plant destruction (growth inhibition rate), Rorippa indica); 100% with Chenopodiaceae (504 h, Dose 150 g/ha, fresh weight inhibition, read-out: activity level of harmful plant destruction (growth inhibition rate), Chenopodiaceae); 70 to 80% in the test on Echinochloa crus-galli (Dose 150 g/ha). For the same molecule, the “weed control effect, Amaranthus retroflexus (activity level)” value in the test with Amaranthus retroflexus (Dose 3000 g/ha) was found to be 10. Besides, in the test on Veronica polita (Dose 3000 g/ha), the “weed control effect, Veronica polita (activity level)” value amounted to 10. In addition, the “weed control effect, Rorippa indica (activity level)” value with Rorippa indica (Dose 3000 g/ha) is listed as 10. Also, the “weed control effect, Chenopodiaceae (activity level)” value in the test on Chenopodiaceae (Dose 3000 g/ha) was 10.
On to `Oc1cc(C(F)(F)F)nnc1-c1ccccc1` [Compound 1], for which the “Inhibitory effect of component (i) when applied alone at same dose” value in the test with weeds (setting [4]) is 20; in the test on weeds (Galinsoga parviflora, 30 g a.i./ha, postemergence, 20 days after treatment) it was 30; in the test on weeds (Galium aparine, 30 g a.i./ha, postemergence, 20 days after treatment) it was 20; in the test on weeds (Sisymbrium sophia, 30 g a.i./ha, postemergence, 20 days after treatment), 20; with weeds (Veronica polita, 30 g a.i./ha, postemergence, 20 days after treatment), 30. In addition, the “weed control effect (activity level), Amaranthus retroflexus” value with Amaranthus retroflexus (dose 2000 g/ha) was found to be 10. Further, the “weed control effect (activity level), Veronica polita” value in the test on Veronica polita (dose 2000 g/ha) was found to be 10. In addition, the “weed control effect (activity level), Rorippa indica” value in the test with Rorippa indica (dose 2000 g/ha) is given as 10. The “weed control effect (activity level), Chenopodiaceae” value in the test on Chenopodiaceae (dose 2000 g/ha) is listed as 8 (Level 8: above 80% growth inhibition rate).
With `Oc1cc(Cl)nnc1-c1ccccc1` [A, reference compound], the inhibition at 300 g/ha in the test with Setaria viridis was 30 to 40%; in the test with Veronica polita (setting [1]) it was 30 to 40%; in the test on Galium aparine, 50 to 60%; with Rorippa indica (setting [2]), 20 to 30%; in the test with Chenopodiaceae (setting [3]), 50 to 60%; with Echinochloa crus-galli, 0%.
For the molecule `COc1cc(C(F)(F)F)nnc1-c1ccccc1` [D, reference compound], the inhibition at 300 g/ha was 0% with Setaria viridis; 0% in the test with Veronica polita (setting [1]); 0% in the test on Galium aparine; 0 to 20% in the test with Rorippa indica (setting [2]); 0 to 20% in the test on Chenopodiaceae (setting [3]); 0% with Echinochloa crus-galli.
For the molecule `Cc1ccc(C(=O)COc2c(C(=O)c3ccc(Cl)c(C)c3Cl)c(C)nn2C)cc1` [Benzofenap], the pest or weed control at 150 g/ha in the test with weeds (post-emergence, 480 h, Abutilon theophrasti, 150 g a.i./ha, postemergence, 20 days after treatment, read-out: Inhibitory effect of component (ii) when applied alone at same dose) turned out to be 40%.
`CS(=O)(=O)c1ccc(C(=O)C2C(=O)CCCC2=O)c([N+](=O)[O-])c1` [Mesotrione]: in the test with weeds (setting [5]), the pest or weed control at 30 g/ha is 40%.
Regarding `CS(=O)(=O)c1cc(C(F)(F)F)ccc1C(=O)c1cnoc1C1CC1` [Isoxaflutole], in the test on weeds (setting [5]), the pest or weed control at 30 g/ha came to 30%.
For `CCC(Oc1ccc(F)c(C(F)(F)F)c1)C(=O)NCc1ccccc1` (stereo not drawn) [Beflubutamid], in the test with weeds (Abutilon theophrasti, 200 g a.i./ha, postemergence, 20 days after treatment), the “Inhibitory effect of component (ii) when applied alone at same dose” value (from here on “Inhibitory effect of component (ii)”) is recorded as 40%.
Take `COc1c(Cl)ccc(-c2nc(C(=O)OCc3ccccc3)c(Cl)c(N)c2F)c1F` [Florpyrauxifen-benzyl]: in the test with weeds (Abutilon theophrasti, 2 g a.i./ha, postemergence, 20 days after treatment), the “Inhibitory effect of component (ii)” value is on record as 45%.
For `Nc1c(Cl)c(Cl)nc(C(=O)O)c1Cl` [Picloram], in the test with weeds (setting [6]), the pest or weed control at 50 g/ha turned out to be 40%.
Turning to `Nc1c(Cl)c(F)nc(OCC(=O)O)c1Cl` [Fluroxypyr], the pest or weed control at 30 g/ha in the test on weeds (post-emergence, 480 h, Galium aparine, 30 g a.i./ha, postemergence, 20 days after treatment, read-out: Inhibitory effect of component (ii) when applied alone at same dose) came out at 40%.
Take `Cn1[nH]c(C2CC2)c(C(=O)c2ccc(C(F)(F)F)c(N3CCCCC3=O)c2Cl)c1=O` [Huanbifucaotong]: in the test with weeds (setting [4]), the “Inhibitory effect of component (ii)” value is 30%.
For the molecule `O=C(O)COc1nc(Cl)c(Cl)cc1Cl` [Triclopyr], the pest or weed control at 50 g/ha in the test with weeds (setting [6]) came out at 35%.
As to `CC(C)CCCCCOC(=O)COc1ccc(Cl)cc1Cl` [2,4-D iso-octyl ester], in the test with weeds (Sisymbrium sophia, 50 g a.i./ha, postemergence, 20 days after treatment), the “Inhibitory effect of component (ii)” value worked out at 40%.
For `COc1c(Cl)ccc(Cl)c1C(=O)O` [Dicamba], in the test on weeds (Descurainia sophia, post-emergence, 480 h, Sisymbrium sophia, 10 g a.i./ha, postemergence, 20 days after treatment, read-out: Inhibitory effect of component (ii) when applied alone at same dose), the pest or weed control at 10 g/ha turned out to be 30%.
`O=C(O)COc1nc(Cl)c(Cl)cc1Cl` [Trichlopyr]: the “Inhibitory effect of component (ii)” value with weeds (Abutilon theophrasti, 50 g a.i./ha, postemergence, 20 days after treatment) is 40%.
Take `Cc1c(C(=O)c2cnn(C)c2O)ccc(S(C)(=O)=O)c1C1=NOCC1` [Topramezone]: the “Inhibitory effect of component (ii)” value in the test with weeds (Abutilon theophrasti, 5 g a.i./ha, postemergence, 20 days after treatment) was found to be 40%.
Turning to `CCCCCCCCSC(=O)Oc1cc(Cl)nnc1-c1ccccc1` [B, reference compound], the inhibition at 300 g/ha was 30 to 40% with Setaria viridis; 30 to 40% with Veronica polita (setting [1]); 40 to 50% in the test on Galium aparine; 30 to 40% in the test on Rorippa indica (setting [2]); 30 to 40% in the test with Chenopodiaceae (setting [3]); 0% in the test with Echinochloa crus-galli.
On to `O=C(O)c1c(Cl)ccc2cc(Cl)cnc12` [Quinclorac], for which, in the test with weeds (post-emergence, 480 h, Galium aparine, 50 g a.i./ha, postemergence, 20 days after treatment, read-out: Inhibitory effect of component (ii) when applied alone at same dose), the pest or weed control at 50 g/ha stood at 50%.
With `O=C(O)c1nc(Cl)ccc1Cl` [Clopyralid], the pest or weed control at 50 g/ha in the test on weeds (post-emergence, 480 h, Galinsoga parviflora, 50 g a.i./ha, postemergence, 20 days after treatment, read-out: Inhibitory effect of component (ii) when applied alone at same dose) was 40%.
Turning to `Cc1nn(C)cc1C(=O)Oc1c(C(=O)c2ccc(C(F)(F)F)cc2S(C)(=O)=O)c(C)nn1C` [Shuangzuocaotong], in the test with weeds (Sisymbrium sophia, 5 g a.i./ha, postemergence, 20 days after treatment), the “Inhibitory effect of component (ii)” value is 40%.
Consider `C=CCOc1cc(C(F)(F)F)nnc1-c1ccccc1` [E, reference compound], for which the inhibition at 300 g/ha in the test on Setaria viridis was 0%; in the test with Veronica polita (setting [1]), 0%; in the test on Galium aparine, 0%; with Rorippa indica (setting [2]) it was 0 to 20%; with Chenopodiaceae (setting [3]), 0 to 20%; in the test with Echinochloa crus-galli it was 0%.
For the molecule `CC(Oc1ccc(Cl)cc1Cl)C(=O)O` (stereo not drawn) [Dichlorprop], in the test with weeds (Descurainia sophia, post-emergence, 480 h, Sisymbrium sophia, 100 g a.i./ha, postemergence, 20 days after treatment, read-out: Inhibitory effect of component (ii) when applied alone at same dose), the pest or weed control at 100 g/ha worked out at 40%.
In the case of `CS(=O)(=O)c1ccc(C(=O)C2C(=O)CCCC2=O)c(Cl)c1` [Sulcotrione], the pest or weed control at 50 g/ha with weeds (Abutilon theophrasti, post-emergence, 480 h, read-out: Inhibitory effect of component (ii) when applied alone at same dose) was found to be 30%.
Regarding `O=C(O)CCCOc1ccc(Cl)cc1Cl` [2,4-DB], the “Inhibitory effect of component (ii)” value in the test with weeds (Sisymbrium sophia, 200 g a.i./ha, postemergence, 20 days after treatment) is on record as 50%.
As for `CS(=O)(=O)c1ccc(C(=O)C2=C(Sc3ccccc3)C3CCC(C3)C2=O)c(Cl)c1` (stereo not drawn) [Benzobicyclon], the “Inhibitory effect of component (ii)” value with weeds (Abutilon theophrasti, 150 g a.i./ha, postemergence, 20 days after treatment) came out at 50%.
